From publication PMC5651845, “A New Generation of Arachidonic Acid Analogues as Potential Neurological Agent Targeting Cytosolic Phospholipase A2” (Scientific Reports, 2017)

target: T1, recombinant cPLA2 (Homo sapiens, UniProt P47712); assay: EnzChek phospholipase A2 fluorogenic assay (% activity) at 10 μM; assay type: biochemical; settings: 10 μM compound
T1 construct: purchased US Biological P4074-03R
T1 sequence (P47712 1-749): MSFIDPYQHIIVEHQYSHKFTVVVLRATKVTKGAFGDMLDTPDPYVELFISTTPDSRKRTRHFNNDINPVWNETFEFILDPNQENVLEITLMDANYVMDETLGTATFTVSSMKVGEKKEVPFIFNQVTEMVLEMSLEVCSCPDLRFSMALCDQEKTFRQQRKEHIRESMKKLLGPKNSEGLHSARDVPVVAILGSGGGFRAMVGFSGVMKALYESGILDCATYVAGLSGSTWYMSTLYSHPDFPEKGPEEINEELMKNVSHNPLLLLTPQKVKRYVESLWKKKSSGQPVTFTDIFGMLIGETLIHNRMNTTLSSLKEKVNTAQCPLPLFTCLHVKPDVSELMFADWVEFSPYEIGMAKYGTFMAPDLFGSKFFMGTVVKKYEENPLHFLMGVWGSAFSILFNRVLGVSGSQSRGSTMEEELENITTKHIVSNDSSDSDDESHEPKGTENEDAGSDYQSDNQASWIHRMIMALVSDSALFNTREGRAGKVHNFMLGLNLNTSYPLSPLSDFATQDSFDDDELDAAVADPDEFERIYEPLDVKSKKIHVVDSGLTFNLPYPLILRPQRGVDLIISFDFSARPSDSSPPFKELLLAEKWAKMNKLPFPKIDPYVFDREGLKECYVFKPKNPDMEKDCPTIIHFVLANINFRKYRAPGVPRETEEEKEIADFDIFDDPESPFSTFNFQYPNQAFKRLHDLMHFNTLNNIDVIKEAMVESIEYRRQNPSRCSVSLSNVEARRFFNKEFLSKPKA
Experimental: The compounds were evaluated with a fluorogenic PLA2 assay kit (EnzChek® Phospholipase A2 Assay Kit, Catalog No: E10217) at a standard 10 μM concentration. Potential inhibitors were determined by their ability to lower cPLA2 activity to a greater extent than 1a.
The assay was conducted according to the manufacturer’s instruction (E10217, Molecular Probes) with slight modification. Briefly, substrate solution was separately prepared by mixing 5 μL of DOPG, 5 μL of DOPC and 5 μL of substrate respectively in 1.5 mL of 1X phospholipase A2 reaction buffer. The mixture was vortexed vigorously for 3 min before allowing to stand at room temperature for 1 h. 48 μL of 1X phospholipase A2 reaction buffer were added into each well of a 96-wells plate. This was followed by addition of 1 μL of recombinant cPLA2 (P4074-03R, US Biological) and 1 μL of 1 mM of the respective compound dissolved in DMSO. The final concentration of the test compound achieved is 10 μM. The reaction was initiated by adding 50 μL of the substrate solution and incubating at room temperature for 1 h. Fluorescence was measured using a Varioskan plate reader (Thermo Scientific, MA, USA) by exciting at 485 nm, while fluorescence emission was detected at 515 nm. Positive control was performed when 1 μL of test compound was replaced by vehicle DMSO. % activity was expressed as the mean value of duplicate wells from three experiments. % activity was calculated by the following formula1 %activity=fluorescenceoftestedwell−background/fluorescenceofpostivecontrol−background

| SMILES | inhibition at 10 µM |
| --- | --- |
| CCC/C=C\C/C=C\C/C=C\C/C=C\CCCCC(=O)NCCCCC(=O)O [2h] | 56.4% |
| CCC/C=C\C/C=C\C/C=C\C/C=C\CCCCC(=O)Nc1cccc(C(=O)O)c1 [2j] | 83.5% |
| CCCCC/C=C\C/C=C\C/C=C\C/C=C\CCCCCC(=O)NCCCCC(=O)O [2k] | 62.3% |
| CCCCC/C=C\C/C=C\C/C=C\C/C=C\CCCC(=O)Nc1ccc(C(N)=O)cc1 [2l] | 32.6% |
| CCCCC/C=C\C/C=C\C/C=C\C/C=C\CCCC(=O)Nc1cccc(C(N)=O)c1 [2m] | 42.5% |
| CCCCC/C=C\C/C=C\C/C=C\C/C=C\CCCC(=O)Nc1ccc(C(=O)O)cc1 [2n] | 66.7% |
| CCCCC/C=C\C/C=C\C/C=C\C/C=C\CCCC(=O)Nc1ccccc1C(=O)O [2o] | 34.5% |
| CCCCC/C=C\C/C=C\C/C=C\C/C=C\CCCC(=O)Nc1cccc(S(N)(=O)=O)c1 [2p, (5Z,8Z,11Z,14Z)-N-(3-sulfamoylphenyl)icosa-5,8,11,14-tetraenamide] | 46.1% |
| CCCCC/C=C\C/C=C\C/C=C\C/C=C\CCCC(=O)NCCCCCC(=O)OC [20c] | 15.2% |

same assay, conditions: 10 μM compound, 1 h, room temperature

| SMILES | remaining activity at 10 µM |
| --- | --- |
| CCC/C=C\C/C=C\C/C=C\C/C=C\CCCCC(=O)NCCCCC(=O)O [2h] | 43.6 ± 0.2% |
| CCC/C=C\C/C=C\C/C=C\C/C=C\CCCCC(=O)Nc1cccc(C(=O)O)c1 [2j] | 16.5 ± 1.2% |
| CCCCC/C=C\C/C=C\C/C=C\C/C=C\CCCCCC(=O)NCCCCC(=O)O [2k] | 37.7 ± 1.5% |
| CCCCC/C=C\C/C=C\C/C=C\C/C=C\CCCC(=O)Nc1ccc(C(N)=O)cc1 [2l] | 67.4 ± 5.7% |
| CCCCC/C=C\C/C=C\C/C=C\C/C=C\CCCC(=O)Nc1cccc(C(N)=O)c1 [2m] | 57.5 ± 1.4% |
| CCCCC/C=C\C/C=C\C/C=C\C/C=C\CCCC(=O)Nc1ccc(C(=O)O)cc1 [2n] | 33.3 ± 0.9% |
| CCCCC/C=C\C/C=C\C/C=C\C/C=C\CCCC(=O)Nc1ccccc1C(=O)O [2o] | 65.5 ± 4% |
| CCCCC/C=C\C/C=C\C/C=C\C/C=C\CCCC(=O)Nc1cccc(S(N)(=O)=O)c1 [2p, (5Z,8Z,11Z,14Z)-N-(3-sulfamoylphenyl)icosa-5,8,11,14-tetraenamide] | 53.9 ± 2.7% |
| CCCCC/C=C\C/C=C\C/C=C\C/C=C\CCCC(=O)NCCCCCC(=O)OC [20c] | 84.8 ± 1% |

tested on: not listed separately; assay: PAMPA with porcine brain lipids (BBB permeation); settings: porcine brain lipids, 16 h, 25 °C
Experimental: Thus to explore whether 2i is able to penetrate into the brain, we used PAMPA with porcine brain lipids as the lipid barrier. […] A minimum Pe of […] × 10^−6 cm/s has been cited as the threshold for permeability across the blood brain barrier.
The Parallel Artificial Membrane Permeability Assay (PAMPA) was used to determine the effective permeability (Pe) of 2i. The method reported by Di et al.[53] was followed with modifications. Determinations were carried out on MultiScreen-IP PAMPA assay (donor) plates (MAIPNTR10) and MultiScreen Receiver Plates (MATRNPS50) from Millipore Corporation (USA) with porcine polar brain lipids (Avanti Polar Lipids Inc, Alabaster, AL) as the lipid barrier.
An aliquot (5 µL) of 2% porcine brain lipids in dodecane (ReagentPlus®, Sigma Aldrich, USA) was dispensed into the donor well. A stock solution (5 mM) of 2i prepared in DMSO was diluted with 1x phosphate buffer (PBS, pH 7.4) to give a 50 µM solution. An aliquot (300 µL) of the solution was dispensed into the donor well and an equal volume of buffer (1xPBS with 1% DMSO) was added to the corresponding acceptor well. The donor and acceptor plates were assembled, the unit was placed in a humidified box and gently agitated on a mini shaker at room temperature (25 °C) for 16 h. After this time, aliquots (200 µL) were withdrawn from the donor and acceptor wells, diluted separately to 1 mL with PBS, and quantified at λmax of 290 nm on a Shimadzu UV-1800 Spectrophotometer.
300 µL aliquots of stock solutions (500 µM, 1xPBS, 0.1% DMSO) were dispensed to donor wells as described earlier. Quantification was by UV at λmax of 272 nm (caffeine), 284 nm (carbamazepine), 330 nm (quinidine), 280 nm (dopamine) and 288 nm (propanolol). […] Pe was obtained from (3):3 Pe=−2.303×{VAVD/[(VA+VD)×A×t]}×log{1−[(VA+VD)/(VD.S)]×CA(t)/CD(0)} where VA and VD are the volumes of acceptor (cm^3) and donor (cm^3) wells respectively, A is the area of the surface area of the membrane (0.24 cm^2), t is the permeation time (s). The Pe of each compound was obtained from at least 3 separate experiments using 2 different stock solutions. For each independent determination, triplicates (3 wells) were run for each compound.

| effective permeability (Pe) | SMILES |
| --- | --- |
| 2.00 ± 0.05 × 10^−6 cm/s | O=C1NC(=O)/C(=C/c2ccc(C(=O)NC[C@@H]3C[C@@H](SC(c4ccccc4)(c4ccccc4)c4ccccc4)CN3C(=O)c3ccccc3C(=O)c3ccc(F)cc3F)cc2)S1 [pyrrophenone] |

same assay, conditions: similar conditions

| SMILES | order of Pe values of reference compounds |
| --- | --- |
| Cn1c(=O)c2c(ncn2C)n(C)c1=O [caffeine] | propranolol > carbamazepine > quinidine > caffeine > dopamine |
| NC(=O)N1c2ccccc2C=Cc2ccccc21 [carbamazepine] | propranolol > carbamazepine > quinidine > caffeine > dopamine |
| NCCc1ccc(O)c(O)c1 [dopamine] | propranolol > carbamazepine > quinidine > caffeine > dopamine |
| CC(C)NCC(O)COc1cccc2ccccc12 (stereo not drawn) [propranolol] | propranolol > carbamazepine > quinidine > caffeine > dopamine |
| C=C[C@H]1C[N@@]2CC[C@H]1C[C@@H]2[C@@H](O)c1ccnc2ccc(OC)cc12 [quinidine] | propranolol > carbamazepine > quinidine > caffeine > dopamine |
